Data on 14 compounds can be found in BindingDB's records for doi:10.1111/j.1471-4159.1990.tb04946.x (Schering-Plough Research Institute, 1990).

SMILES strings stand for the structures.

What is called Ki is the equilibrium dissociation constant of an inhibitor or competing ligand from its target.

This assay concerns the target Hrh3 protein (Rattus norvegicus, UniProt Q5PPG3).

Hrh3 protein, sequence (Q5PPG3 whole entry): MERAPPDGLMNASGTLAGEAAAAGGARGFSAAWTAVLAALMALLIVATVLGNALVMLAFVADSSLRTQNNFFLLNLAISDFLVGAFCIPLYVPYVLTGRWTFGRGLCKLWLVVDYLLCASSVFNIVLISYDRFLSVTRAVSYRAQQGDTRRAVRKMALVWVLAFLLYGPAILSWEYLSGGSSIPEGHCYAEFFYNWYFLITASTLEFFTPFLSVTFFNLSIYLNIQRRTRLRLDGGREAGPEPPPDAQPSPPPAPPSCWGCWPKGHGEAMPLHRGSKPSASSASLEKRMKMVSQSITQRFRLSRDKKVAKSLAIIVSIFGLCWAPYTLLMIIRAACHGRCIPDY

Regarding `COc1ccc(CN(CCN(C)C)c2ccccn2)cc1`, the inhibitory constant (Ki) was greater than 10000 nM.

Turning to `CN/C(=N/CCSCc1nc[nH]c1C)NC#N`, the Ki was 8000 nM.

As to `CN/C([CH-][N+](=O)[O-])=[NH+]\CCSCc1ccc(CN(C)C)o1`, the Ki is greater than 10000 nM.

For the compound `C[C@@H](N)Cc1c[nH]cn1`, the Ki worked out at 1.2 nM.

Compound `S=C(NC1CCCCC1)N1CCC(c2cnc[nH]2)CC1` showed a Ki of 16 nM.

Take `c1c[nH]cn1`: the Ki was greater than 10000 nM.

Compound `Cc1[nH]cnc1CSCCNC(=N)NCCCc1c[nH]cn1` [2-[3-(1H-imidazol-5-yl)propyl]-1-(2-{[(5-methyl-1H-imidazol-4-yl)methyl]sulfanyl}ethyl)guanidine] gave a Ki of 46 nM.

As to `C/N=C(\S)NCCSCc1[nH]cnc1C` [CAS_34839-70-8], the Ki was greater than 10000 nM.

In turn, `CNCCc1c[nH]cn1` [N(alpha)-Methylhistamine] displayed a Ki of 0.45 nM.

`NC(Cc1c[nH]cn1)C(=O)O` (centres undefined) [NSC_773] gave an inhibition constant Ki greater than 10000 nM.

Consider `CN(C)CCCSC(=N)N` [[3-(carbamimidoylsulfanyl)propyl]dimethylamine], for which the affinity, expressed as Ki, was 440 nM.

Compound `NCCc1c[nH]cn1` [[3H]histamine] had a Ki of 11 nM.

With `CNC(=NCCSCc1csc(N=C(N)N)n1)NC#N` [[3H]tiotidine], the Ki was greater than 10000 nM.

On to `CN(C)CCC(c1ccc(Cl)cc1)c1ccccn1` (centres undefined) [clorfeniramina], for which the Ki was greater than 10000 nM.
